# From patent US10040803B2, “4-((2-acrylamidophenyl)amino)thieno[3,2-D]pyrimidine-7-carboxamide derivatives as protein kinase inhibitors” (KOREA INSTITUTE OF SCIENCE AND TECHNOLOGY, priority 2016, dated 2018)
# Tests used:
# HUH7 cells = assay: Inhibition of growth of liver cancer cell line HUH7 (CellTiter-Glo); format: cell-based; details: Homo sapiens, Huh-7, CellTiter-Glo luminescence
# Procedure: (§1) The inhibition activity for liver cancer cell lines was measured for 4-((2-acrylamido-6-methylphenyl)amino)-N-(3,5-dimethoxyphenyl)thieno[3,2-d]pyrimidine-7-carboxamide (Compound 1) and 4-((2-acrylamido-6-methylphenyl)amino)-N-(2-methyl-5-(3-(trifluoromethyl)benzamido)phenyl)thieno[3,2-d]pyrimidine-7-carboxamide (Compound 2) synthesized in the present invention.
# (§2) Hep3B or HUH7 cells were seeded onto a 96-well plate with 5,000 cells per well and then cultured overnight in F-12K Nutrient Mixture (Life Technologies Corporation) containing 10% FBS at 37° C. in the presence of 5% CO2. The test compound dissolved in dimethyl sulfoxide was diluted to a final concentration of 1-50 μM and then added to the 96-well plate. After culturing at 37° C. in the presence of 5% CO2 and adding a cell count reagent (CellTiter-Glo® Luminescent Cell Viability Assay), luminescence intensity was measured using a luminescence measuring apparatus (Envision).
# Hep3B cells = assay: Inhibition of growth of liver cancer cell line Hep3B (CellTiter-Glo); format: cell-based; details: Homo sapiens, CellTiter-Glo luminescence
# Procedure: as §1, §2
GI50 (HUH7 cells) [µM],GI50 (Hep3B cells) [µM],Compound
< 10,< 10,"C=CC(=O)Nc1cccc(C)c1Nc1ncnc2c(C(=O)Nc3cc(OC)cc(OC)c3)csc12 [Compound 1, 4-((2-acrylamido-6-methylphenyl)amino)-N-(3,5-dimethoxyphenyl)thieno[3,2-d]pyrimidine-7-carboxamide]"
< 1,< 1,"C=CC(=O)Nc1cccc(C)c1Nc1ncnc2c(C(=O)Nc3cc(NC(=O)c4cccc(C(F)(F)F)c4)ccc3C)csc12 [Compound 2, 4-((2-acrylamido-6-methylphenyl)amino)-N-(2-methyl-5-(3-(trifluoromethyl)benzamido)phenyl)thieno[3,2-d]pyrimidine-7-carboxamide]"
